SMILES strings stand for the structures. Like-named read-outs stand apart in the source and are kept apart here.

Assay [1] has as its target T1, nuclear factor-kappa B (NF-kB)-inducing kinase (NIK) (Homo sapiens, UniProt Q99558).
T1 construct: made in house; host or cells: baculovirus-infected insect cells
Put plainly: NIK enzyme inhibition assay (Transcreener ADP fluorescence polarization, NIK ADP-FP). The class given is biochemical. A general note: Polarisation of emitted light reports the rotation of a fluorescent probe.
Experimental: NIK Enzyme Inhibition Assay:
The ability of the nuclear factor-kappa B (NF-kB)-inducing kinase (NIK) to catalyze the hydrolysis of adenosine-5′-triphosphate (ATP) was monitored using the Transcreener ADP (adenosine-5′-diphosphate) assay (BellBrook Labs). […] Reactions were quenched by the addition of 20 mM 2,2′,2″,2′″-(ethane-1,2-diyldinitrilo)tetraacetic acid and 0.01% Brij 35. The tracer bound to the antibody was displaced by the ADP generated during the NIK reaction, which causes a decrease in fluorescence polarization that was measured by laser excitation at 633 nm with a Fluorescence Correlation Spectroscopy Plus reader (Evotec AG). Equilibrium dissociation constant (Ki) values for NIK inhibitors are calculated from plots of activity vs. inhibitor concentration using Morrison's quadratic equation that accounts for the potential of tight binding, and by also applying the conversion factor that accounted for competitive inhibition and the concentration of substrate used in the assay relative to its Michaelis constant (Km).

Assay [2] deals with REL-A (p65) nuclear translocation in HeLa cells. Kind of assay: REL-A (p65) nuclear translocation assay in HeLa cells, TNF-α stimulated (classical NF-kB signaling), high content imaging. It is filed as cell-based. The settings on record: compound 4.5 h, then 10 ng/mL TNF-α for 30 minutes, read-out: REL-A HeLa Transloc Assay (IC50). In short, it runs like this:
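HeLa cells in medium with 10% fetal bovine serum were exposed to compounds (0.2% DMSO final) for 4.5 hours, then stimulated with 10 ng/mL TNF-α for 30 minutes. After fixation in 4% paraformaldehyde and permeabilization with 0.1% Triton X-100, cells were stained with 400 ng/mL anti-REL-A (p65) antibody, an Alexa488 secondary and DRAQ5. Opera imaging quantified the nuclear-to-cytoplasmic signal ratio to give IC50.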

Assay [3] deals with p52 (NF-kB2) nuclear translocation in HeLa cells. Kind of assay: p52 (NF-kB2) nuclear translocation assay in HeLa cells, anti-lymphotoxin beta receptor antibody stimulated (non-classical NF-kB signaling), high content imaging. The settings on record: 100 ng/mL anti-lymphotoxin beta receptor antibody for 5 hours, read-out: p52 HeLa Transloc Assay (IC50). The class given is cell-based. In short, it runs like this: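 HeLa cells in 10% FBS medium were treated with compound (0.2% DMSO final) and stimulated with 100 ng/mL anti-lymphotoxin beta receptor antibody for 5 h. Fixed cells were immunostained for p52 and imaged with DRAQ5 nuclear stain. Translocation is the nuclear to cytoplasmic intensity ratio, […].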

T1 sequence (Q99558 whole entry): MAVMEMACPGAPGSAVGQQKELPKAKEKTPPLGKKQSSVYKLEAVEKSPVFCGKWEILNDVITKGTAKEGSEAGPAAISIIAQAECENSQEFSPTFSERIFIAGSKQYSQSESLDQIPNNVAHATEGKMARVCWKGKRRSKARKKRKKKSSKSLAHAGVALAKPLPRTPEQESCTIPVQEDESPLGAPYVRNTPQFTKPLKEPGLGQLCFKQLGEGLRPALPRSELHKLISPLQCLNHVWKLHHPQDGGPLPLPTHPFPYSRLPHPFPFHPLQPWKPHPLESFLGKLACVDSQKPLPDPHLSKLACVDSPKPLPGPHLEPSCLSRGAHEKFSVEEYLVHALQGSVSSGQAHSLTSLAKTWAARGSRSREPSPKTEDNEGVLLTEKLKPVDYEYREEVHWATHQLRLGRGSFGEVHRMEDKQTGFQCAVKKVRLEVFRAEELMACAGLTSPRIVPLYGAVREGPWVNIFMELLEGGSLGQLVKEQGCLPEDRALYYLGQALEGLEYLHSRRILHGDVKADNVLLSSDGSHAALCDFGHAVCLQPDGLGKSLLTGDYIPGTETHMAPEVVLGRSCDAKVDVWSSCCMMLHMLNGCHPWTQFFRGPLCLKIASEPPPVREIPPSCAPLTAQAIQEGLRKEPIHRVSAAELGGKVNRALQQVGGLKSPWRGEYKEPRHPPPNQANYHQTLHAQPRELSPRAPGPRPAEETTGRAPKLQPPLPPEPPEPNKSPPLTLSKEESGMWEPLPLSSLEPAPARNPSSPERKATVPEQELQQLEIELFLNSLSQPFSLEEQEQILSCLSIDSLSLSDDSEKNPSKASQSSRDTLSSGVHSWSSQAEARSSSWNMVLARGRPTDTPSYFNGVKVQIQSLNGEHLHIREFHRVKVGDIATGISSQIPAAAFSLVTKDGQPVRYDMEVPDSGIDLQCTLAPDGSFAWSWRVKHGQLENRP

By Ki is commonly meant the dissociation constant of the complex between target and ligand, obtained from inhibition or displacement. High values mean a looser hold on the target, low ones a stronger hold on the target. The IC50 is the concentration that gives 50% inhibition. In assay [1], `CN1CC[C@@](O)(C#Cc2cccc(-c3nc(C(N)=O)c(NC[C@@H]4CCO4)cc3F)c2)C1=O` [Example 81, 5-fluoro-6-[3-[2-[(3R)-3-hydroxy-1-methyl-2-oxo-pyrrolidin-3-yl]ethynyl]phenyl]-3-[[(2S)-oxetan-2-yl]methylamino] pyridine-2-carboxamide] registered a Ki of 0.05 nM. Also, the IC50 in assay [2] (Homo sapiens, HeLa) is at least 2000 nM; in assay [3] (Homo sapiens) it was 50.8 nM.

In turn, `CN1CC[C@@](O)(C#Cc2cccc(-c3nc(C(N)=O)c(NC[C@H]4CCO4)cc3F)c2)C1=O` [Example 82, 5-fluoro-6-[3-[2-[(3R)-3-hydroxy-1-methyl-2-oxo-pyrrolidin-3-yl]ethynyl]phenyl]-3-[[(2R)-oxetan-2-yl]methylamino] pyridine-2-carboxamide] showed a Ki in assay [1] of 0.33 nM. In addition, the 50% inhibitory concentration (IC50) was at least 2000 nM in assay [2] (Homo sapiens, HeLa) and 95.5 nM in assay [3] (Homo sapiens).

As to `CN1CC[C@@](O)(C#Cc2cccc(-c3nc(C(N)=O)c(NCC(F)(F)F)cc3F)c2)C1=O` [Example 83, 5-fluoro-6-[3-[2-[(3R)-3-hydroxy-1-methyl-2-oxo-pyrrolidin-3-yl]ethynyl]phenyl]-3-(2,2,2-trifluoroethylamino) pyridine-2-carboxamide], the affinity in assay [1], expressed as Ki, was 0.15 nM. In addition, the half-maximal inhibitory concentration (IC50) in assay [2] (Homo sapiens, HeLa) was 1000 nM; in assay [3] (Homo sapiens), 11 nM.

Consider `CN1CC[C@@](O)(C#Cc2ccc(F)c(-c3ccc(N)c(C(N)=O)n3)c2)C1=O` [Example 84, 3-amino-6-[2-fluoro-5-[2-[(3R)-3-hydroxy-1-methyl-2-oxo-pyrrolidin-3-yl]ethynyl]phenyl] pyridine-2-carboxamide], for which, in assay [1], the Ki was found to be 0.05 nM. The IC50 stood at 1000 nM in assay [2] (Homo sapiens, HeLa) and 14.2 nM in assay [3] (Homo sapiens).

Take `CN1CC[C@@](O)(C#Cc2ccc(F)c(-c3ccc(NC4COC4)c(C(N)=O)n3)c2)C1=O` [Example 85, 6-[2-fluoro-5-[2-[(3R)-3-hydroxy-1-methyl-2-oxo-pyrrolidin-3-yl]ethynyl]phenyl]-3-(oxetan-3-ylamino)pyridine-2-carboxamide]: the affinity in assay [1], expressed as Ki, was 0.05 nM. Moreover, the IC50 in assay [2] (Homo sapiens, HeLa) was 6320 nM; in assay [3] (Homo sapiens) it was 5.88 nM.

In turn, `COCCNc1ccc(-c2cc(C#C[C@]3(O)CCN(C)C3=O)ccc2F)nc1C(N)=O` [Example 86, 6-[2-fluoro-5-[2-[(3R)-3-hydroxy-1-methyl-2-oxo-pyrrolidin-3-yl]ethynyl]phenyl]-3-(2-methoxyethylamino) pyridine-2-carboxamide] gave a Ki in assay [1] of 0.1 nM. For the same molecule, the half-inhibitory concentration (IC50) in assay [2] (Homo sapiens, HeLa) is at least 20000 nM; in assay [3] (Homo sapiens), 6.27 nM.

The molecule `CN1CC[C@@](O)(C#Cc2cccc(-c3ncc(NC4CC4)c(C(N)=O)n3)c2)C1=O` [Example 87, 5-(cyclopropylamino)-2-[3-[2-[(3R)-3-hydroxy-1-methyl-2-oxo-pyrrolidin-3-yl]ethynyl]phenyl] pyrimidine-4-carboxamide] yielded a Ki in assay [1] of 0.14 nM. Further, the IC50 stood at 1000 nM in assay [2] (Homo sapiens, HeLa) and 4 nM in assay [3] (Homo sapiens).

Molecule `CN1CC[C@@](O)(C#Cc2cccc(-c3ncc(NC4COC4)c(C(N)=O)n3)c2)C1=O` [Example 88, 2-[3-[2-[(3R)-3-hydroxy-1-methyl-2-oxo-pyrrolidin-3-yl]ethynyl]phenyl]-5-(oxetan-3-ylamino) pyrimidine-4-carboxamide] showed an inhibitory constant (Ki) in assay [1] of 0.05 nM. The IC50 in assay [2] (Homo sapiens, HeLa) was at least 20000 nM; in assay [3] (Homo sapiens), 2.12 nM.

`COCCNc1cnc(-c2cccc(C#C[C@]3(O)CCN(C)C3=O)c2)nc1C(N)=O` [Example 89, 2-[3-[2-[(3R)-3-hydroxy-1-methyl-2-oxo-pyrrolidin-3-yl]ethynyl]phenyl]-5-(2-methoxyethylamino) pyrimidine-4-carboxamide] returned a Ki in assay [1] of 0.05 nM. Besides, the half-maximal inhibitory concentration (IC50) in assay [2] (Homo sapiens, HeLa) stood at 1000 nM; in assay [3] (Homo sapiens), 32.4 nM.

As for `CN1CC[C@@](O)(C#Cc2ccc(F)c(-c3cccc(C(N)=O)n3)c2)C1=O` [Example 92, 6-[2-fluoro-5-[2-[(3R)-3-hydroxy-1-methyl-2-oxo-pyrrolidin-3-yl]ethynyl]phenyl]pyridine-2-carboxamide], affinity in assay [1] was put at a Ki of 0.39 nM. Besides, the half-maximal inhibitory concentration (IC50) was at least 20000 nM in assay [2] (Homo sapiens, HeLa) and 133 nM in assay [3] (Homo sapiens).

`COc1ccc2nc(-c3cccc(C#C[C@]4(O)CCN(C)C4=O)c3)nc(C(N)=O)c2c1` [Example 93, 2-[3-[2-[(3R)-3-hydroxy-1-methyl-2-oxo-pyrrolidin-3-yl]ethynyl]phenyl]-6-methoxy-quinazoline-4-carboxamide] had a Ki in assay [1] of 0.15 nM. In addition, the IC50 in assay [2] (Homo sapiens, HeLa) was determined as 6320 nM; in assay [3] (Homo sapiens) it was 21 nM.

In turn, `Cc1cc(C#C[C@]2(O)CCN(C)C2=O)cc(-c2nccc(C(N)=O)n2)c1` [Example 94, 2-[3-[2-[(3R)-3-hydroxy-1-methyl-2-oxo-pyrrolidin-3-yl]ethynyl]-5-methyl-phenyl]pyrimidine-4-carboxamide] had a Ki in assay [1] of 1.41 nM. Also, the half-maximal inhibitory concentration (IC50) in assay [2] (Homo sapiens, HeLa) was at least 20000 nM; in assay [3] (Homo sapiens) it was 175 nM.

In turn, `Cc1ccc(-c2cc(C(N)=O)nc(-c3cccc(C#C[C@]4(O)CCN(C)C4=O)c3)n2)cn1` [Example 95, 2-[3-[2-[(3R)-3-hydroxy-1-methyl-2-oxo-pyrrolidin-3-yl]ethynyl]phenyl]-6-(6-methyl-3-pyridyl)pyrimidine-4-carboxamide] displayed a Ki in assay [1] of 0.49 nM. Moreover, the IC50 in assay [2] (Homo sapiens, HeLa) was at least 20000 nM; in assay [3] (Homo sapiens) it was 55.2 nM.

`CN1CC[C@@](O)(C#Cc2cccc(-c3nc(C(N)=O)cc(-c4cnccn4)n3)c2)C1=O` [Example 96, 2-[3-[2-[(3R)-3-hydroxy-1-methyl-2-oxo-pyrrolidin-3-yl]ethynyl]phenyl]-6-pyrazin-2-yl-pyrimidine-4-carboxamide] had a Ki in assay [1] of 0.45 nM. Further, the 50% inhibitory concentration (IC50) in assay [2] (Homo sapiens, HeLa) was at least 20000 nM; in assay [3] (Homo sapiens) it was 34.7 nM.

Turning to `CN1CC[C@@](O)(C#Cc2cccc(-c3nc(C(N)=O)cc(-c4cc(F)cc(F)c4)n3)c2)C1=O` [Example 97, 6-(3,5-difluorophenyl)-2-[3-[2-[(3R)-3-hydroxy-1-methyl-2-oxo-pyrrolidin-3-yl]ethynyl]phenyl]pyrimidine-4-carboxamide], the inhibition constant (Ki) in assay [1] worked out at 0.37 nM. The IC50 in assay [2] (Homo sapiens, HeLa) is at least 20000 nM; in assay [3] (Homo sapiens), 57.5 nM.

With `CN1CC[C@@](O)(C#Cc2cccc(-c3nc(C(N)=O)cc(-c4cc(F)ccc4F)n3)c2)C1=O` [Example 98, 6-(2,5-difluorophenyl)-2-[3-[2-[(3R)-3-hydroxy-1-methyl-2-oxo-pyrrolidin-3-yl]ethynyl]phenyl]pyrimidine-4-carboxamide], the affinity in assay [1] corresponds to a Ki of 0.23 nM. Also, the half-maximal inhibitory concentration (IC50) in assay [2] (Homo sapiens, HeLa) was at least 20000 nM; in assay [3] (Homo sapiens), 82 nM.

On to `CN1CC[C@@](O)(C#Cc2cccc(-c3nc(OC4COC4)cc(C(N)=O)n3)c2)C1=O` [Example 99, 2-[3-[2-[(3R)-3-hydroxy-1-methyl-2-oxo-pyrrolidin-3-yl]ethynyl]phenyl]-6-(oxetan-3-yloxy) pyrimidine-4-carboxamide], for which the affinity in assay [1] corresponds to a Ki of 0.48 nM. In addition, the concentration for half-maximal inhibition (IC50) in assay [2] (Homo sapiens, HeLa) is at least 20000 nM; in assay [3] (Homo sapiens) it was 104 nM.

Molecule `CN1CC[C@@](O)(C#Cc2cccc(-c3ncc(NCC4COC4)c(C(N)=O)n3)c2)C1=O` [Example 100, 2-[3-[2-[(3R)-3-hydroxy-1-methyl-2-oxo-pyrrolidin-3-yl]ethynyl]phenyl]-5-(oxetan-3-ylmethylamino) pyrimidine-4-carboxamide] yielded a Ki in assay [1] of 0.1 nM. For the same molecule, the IC50 was at least 20000 nM in assay [2] (Homo sapiens, HeLa) and 11.6 nM in assay [3] (Homo sapiens).

For `COC(C)(C)CNc1cnc(-c2cccc(C#C[C@]3(O)CCN(C)C3=O)c2)nc1C(N)=O` [Example 101, 2-[3-[2-[(3R)-3-hydroxy-1-methyl-2-oxo-pyrrolidin-3-yl]ethynyl]phenyl]-5-[(2-methoxy-2-methyl-propyl)amino]pyrimidine-4-carboxamide], affinity in assay [1] was put at a Ki of 0.52 nM. Moreover, the concentration for half-maximal inhibition (IC50) was at least 20000 nM in assay [2] (Homo sapiens, HeLa) and 92.6 nM in assay [3] (Homo sapiens).

`CN1CC[C@@](O)(C#Cc2cccc(-c3ncc(NCCN4CCOCC4)c(C(N)=O)n3)c2)C1=O` [Example 102, 2-[3-[2-[(3R)-3-hydroxy-1-methyl-2-oxo-pyrrolidin-3-yl]ethynyl]phenyl]-5-(2-morpholinoethylamino) pyrimidine-4-carboxamide] gave a Ki in assay [1] of 0.21 nM. For the same molecule, the concentration for half-maximal inhibition (IC50) in assay [2] (Homo sapiens, HeLa) was at least 20000 nM; in assay [3] (Homo sapiens), 66.9 nM.

`Cc1cnn(-c2cc(C(N)=O)nc(-c3cccc(C#C[C@]4(O)CCN(C)C4=O)c3)n2)c1` [Example 104, 2-[3-[2-[(3R)-3-hydroxy-1-methyl-2-oxo-pyrrolidin-3-yl]ethynyl]phenyl]-6-(4-methylpyrazol-1-yl) pyrimidine-4-carboxamide]: the Ki in assay [1] (purified NIK 0.5 nM, 10 μM ATP, pH 7.2, Ki from Morrison's quadratic equation) came to 0.4 nM. The results for the IC50 in assay [2] and in assay [3] were at least 20000 nM and 69.2 nM, respectively.

Take `CN1CC[C@@](O)(C#Cc2cccc(-c3ncc(NCC4(C)COC4)c(C(N)=O)n3)c2)C1=O` [Example 105, 2-[3-[2-[(3R)-3-hydroxy-1-methyl-2-oxo-pyrrolidin-3-yl]ethynyl]phenyl]-5-[(3-methyloxetan-3-yl)methylamino]pyrimidine-4-carboxamide]: the affinity in assay [1] corresponds to a Ki of 0.35 nM. Further, the 50% inhibitory concentration (IC50) in assay [2] (Homo sapiens, HeLa) was at least 2000 nM; in assay [3] (Homo sapiens), 73.3 nM.

(Values after patent publication US20160185797A1, “ALKYNYL ALCOHOLS AND METHODS OF USE” (Genentech, Inc., priority 2013, published 2016).)
